The record followed here is patent publication US8278359B2, “Compositions containing amines and use thereof to treat acne or reduce the appearance of oil or pores on the skin” (Johnson & Johnson Consumer Companies, Inc., priority 2005, dated 2012).

For one experiment, the system named is tyrosinase. Briefly: Tyrosinase protein levels in B16 cells (Western blot, normalized to β-Actin). Particulars: pH 7.2, 48 hours, PBS treated control = 1. Format: cell-based, murine. Here is the method:
THPED was also tested for its ability to induce tyrosinase protein levels in B16 cells. B16 cells were treated with THPED at different concentrations at pH 7.2 for 48 hours and cells were then lysed in 250 μl of PBS containing 1% Triton X-100. B16 cell lysates containing 3.7 μg of protein (for tyrosinase protein analysis) and 1.2 μg of protein (for β-Actin protein analysis) were electrophoresed on 4-20% Tris-Glycine SDS PAGE minigels (Invitrogen, Carlsbad, Calif.), transferred onto PVDF membrane (Bio Rad, Hercules, Calif.), and probed with antibodies for Tyrosinase (1:200 in PBS+0.2% Tween 20+5% BSA, obtained from Santa Cruz Biotechnology, Inc., Santa Cruz, Calif.) and β-Actin (1:2000 in PBS+0.2% Tween 20+5% BSA, obtained from Sigma, St. Louis, Mo.). Protein expression of tyrosinase and β-Actin were analyzed using ECL reagent and Hyperfilm ECL obtained from Amersham (Piscataway, N.J.). The film was developed using a Konica SRX-101A Processor (East Orange, N.J.).
Tyrosinase protein level in untreated B16 cells was normalized to 1.
(In general: Immunoblotting shows a protein as a band on a membrane.)

A further experiment concerns IL-1A. Briefly: UV-induced IL-1A release on reconstituted epidermis (EPI 200 HCF epidermal equivalents). Format: cell-based, human. The note with it: 0.5% w/v topical. Here is the method:
The effect of diamines was evaluated for topical anti-inflammatory activity on human epidermal equivalents. Epidermal equivalents (EPI 200 HCF), multilayer and differentiated epidermis consisting of normal, human epidermal keratinocytes, were purchased from MatTek (Ashland, Mass.). Upon receipt, epidermal equivalents were incubated for 24 hours at 37° C. in maintenance medium without hydrocortisone. Equivalents were topically treated (2 mg/cm^2) with compounds in 70% ethanol/30% propylene glycol vehicle at the indicated concentration 2 hours before exposure to solar ultraviolet light (1000 W-Oriel solar simulator equipped with a 1-mm Schott WG 320 filter; UV dose applied: 70 kJ/m^2 as measured at 360 nm). Equivalents were incubated for 24 hours at 37° C. with maintenance medium then supernatants were analyzed for IL-1A cytokine release using commercially available kits (Upstate Biotechnology, Charlottesville, Va.).

In another experiment the test system is IL-2 (Interleukin-2). Put plainly: PHA-stimulated peripheral blood lymphocyte cytokine release: IL-2. Format: cell-based. Particulars: Homo sapiens, 48 h, read-out: IL-2 % inh. From the text: The ability of various amines to affect the inflammatory responses was illustrated by its ability to reduce the production of cytokines by human lymphocytes stimulated with the T-cell receptor (TCR) activating agent phytohaemagglutinin (PHA) in the following assay.
Human leukocytes were collected from a healthy adult […] via leukopheresis, and adjusted to a density Of 1×10^6 cells/mL in serum free lymphocyte growth medium (ExVivo-15, Biowhittaker, Walkersville, Md.). PBLs were stimulated with 10 μg/mL PHA in the presence or absence of test samples following published methods (Hamamoto Y., et al. Exp Dermatol 2:231-235, 1993). The following compounds were evaluated N,N,N′,N′-Tetrakis(2-hydroxypropyl)ethylenediamine (THPED, available from BASF under the tradename “Quadrol” or “Neutrol”), N,N,N,N-Tetramethylethylenediamine (TEMED, available from Pfaltz & Bauer Chemicals (Waterbury, Conn.)), and Diethylenetriamine (available from Sigma-Aldrich) Following a 48 hour incubation at 37° C. with 5% CO2, the supernatant was removed and evaluated for cytokine content using commercially available multiplex cytokine detection kit.

The test system of another experiment is B16 cells. Put plainly: Induction of pigmentation in vitro, DOPA staining. In kind it is cell-based, murine. Particulars: pH 7.2, 48 hours. The procedure:
THPED was tested for its effect on pigmentation, using melanocytes, DOPA staining and computerized image analysis. THPED was obtained from BASF (Florham Park, N.J.). THPED was dissolved in culture medium and pH was adjusted to neutral (pH 7.2). THPED was assayed at concentrations ranging from 0.05-0.01%.
B16 cells (a murine melanoma cell line) were obtained from American Type Culture Collection (Manassas, Va.). Cells were cultured in Dulbecco's Modified Eagle Medium (DMEM) containing 10% fetal bovine serum (FBS), 4.5 mg/ml glucose, 2 mM L-glutamine, sodium pyruvate, without phenol red (Invitrogen, Carlsbad, Calif.). B16 cells were plated on 12 well tissue culture plates (Corning Costar, San Diego, Calif.), at 40,000 cells per well in the above culture media. Cells were allowed to grow overnight and then treated with various concentrations of THPED at pH 7.2 for total 48 hours. Fresh media containing the experimental treatments were changed once daily.
At the end of the treatment, the cells were washed for 5 minutes, twice, in phosphate-buffered saline (PBS, from Life Technologies, Gaithersburg, Md.), then briefly fixed in 10% buffered formalin (from Sigma St. Louis, Mo.) for 10 minutes, washed three times with PBS and stained with 0.1% L-3,4-Dihydroxyphenylalanine (DOPA, from Sigma, St. Louis, Mo.) in PBS for 2-3 hours at 37° C., followed by three PBS washes. DOPA is a substrate for tyrosinase; therefore an increase in staining represents increased tyrosinase activity and pigment production. Images of DOPA-stained cells were taken using a Leica DMIL microscope (Bannockburn, Ill.) and an OPTRONICS DEI-750 digital camera (Goleta, Calif.). All images were obtained and analyzed with Image Pro Plus 4.0 software (Media Cybernetics, Silver Spring, Md.).
The pigment change was evaluated using the scale defined in Table XII.

In the case of `CC(O)CN(CCN(CC(C)O)CC(C)O)CC(C)O` (stereo not shown) [THPED, N,N,N′,N′-Tetrakis(2-hydroxypropyl)ethylenediamine], the figures for the “Relative increase in tyrosinase protein” value with tyrosinase (0.01%), in the experiment with tyrosinase (0.025%) and in the experiment on tyrosinase (0.05%) were 3 fold, 25 fold and 36 fold, respectively. In addition, in the experiment on IL-1A (2 hours before UV (70 kJ/m^2), 24 hours after), the “Mean +/− Std Dev of IL-1A Release” value came out at 357.3 ± 92.1 ng/mL. Further, the inhibition at 0.5 % strength with IL-1A (Homo sapiens, 2 hours before UV, vs UV, Vehicle, read-out: Percent Inhibition of Skin Inflammation) came out at 0%. In the experiment with IL-2 (Interleukin-2), the inhibition at 10 µg/mL came out at 10.6%. The inhibition at 100 µg/mL in the experiment on IL-2 (Interleukin-2) worked out at 41.3%. Moreover, the Pigmentation score in the experiment on B16 cells (0.01% (w/v)) was 1; in the experiment with B16 cells (0.025% (w/v)), 2; with B16 cells (0.05% (w/v)) it was 4.
